ChEMBL document CHEMBL1131940 (Bioorg Med Chem Lett, 1999)

Target: Estrogen receptor (Homo sapiens, UniProt Q92731+P03372)
Details: mcf-7
Description: In vitro inhibition of estrogen-stimulated MCF-7 cell proliferation

Q: `CN(CCN1CCCCC1)c1ccc(C(=O)c2c(-c3ccc(O)cc3)sc3cc(O)ccc23)cc1` was tested. Which IC50 did it give?
A: 10 nM

Q: How did the IC50 turn out when `COc1ccc(-c2sc3cc(OC)ccc3c2C(=O)c2ccc(CCCN3CCCCC3)cc2)cc1` was run?
A: 1000 nM

Q: Which IC50 does the source give for `O=C(c1ccc(CCCN2CCCCC2)cc1)c1c(-c2ccc(O)cc2)sc2cc(O)ccc12` here?
A: 10 nM

Q: `O=C(c1ccc(S(=O)(=O)CCN2CCCCC2)cc1)c1c(-c2ccc(O)cc2)sc2cc(O)ccc12` was tested. Which IC50 did it give?
A: 30 nM

Q: `O=C(c1ccc(NCCN2CCCCC2)cc1)c1c(-c2ccc(O)cc2)sc2cc(O)ccc12` was tested. Which IC50 did it give?
A: 2 nM

Q: For `COc1ccc(-c2sc3cc(OC)ccc3c2C(=O)c2ccc(S(=O)(=O)CCN3CCCCC3)cc2)cc1`, which IC50 is on record?
A: > 1000 nM

Q: How did the IC50 turn out when `O=C(c1ccc(SCCN2CCCCC2)cc1)c1c(-c2ccc(O)cc2)sc2cc(O)ccc12` was run?
A: 0.9 nM
